Measured values: patent US20240391862A1, “(1,4,5-TRISUBSTITUTED-1H-PYRAZOL-3-YL)OXY-2-ALKOXY ALKYL ACIDS AND THEIR DERIVATIVES, THEIR SALTS AND THEIR USE AS HERBICIDAL AGENTS” (Bayer AKtiengesellschaft, priority 2021, published 2024)

What was measured:
TRZAS = test: Post-emergence herbicidal effect and crop plant compatibility, greenhouse pot test; format: in vivo, Triticum aestivum; settings: Triticum aestivum, 504 h, 20 g/ha, one-leaf stage, rated visually after about 3 weeks vs untreated controls, read-out: Post-emergence effect at 20 g/ha against TRZAS in %
Excerpt: • ALOMY: Alopecurus myosuroides SETVI: Setaria viridis • AVEFA: Avena fatua POLCO: Fallopia convolvulus • AMARE: Amaranthus retroflexus ECHCG: Echinochloa crus-galli • LOLRJ: Lolium rigidum STEME: Stellaria media • VERPE: Veronica persica MATIN: Tripleurospermum inodorum • DIGSA: Digitaria sanguinalis ABUTH: Abutylon threophrasti • TRZAS: Triticum aestivum VIOTR: Viola tricolor • BRSNW: Brassica napus ZEAMX: Zea mays • PHBPU: Ipomoea purpurea GLXMA: Glycine max • ORYSA: Oryza sativa HORMU: Hordeum murinum
Seeds of monocotyledonous and dicotyledonous weeds and crop plants are placed in sandy loam in plastic or organic planting pots, covered with soil and cultivated in a greenhouse under controlled growth conditions. 2 to 3 weeks after sowing, the trial plants are treated at the one-leaf stage. The compounds of the invention, formulated in the form of wettable powders (WP) or as emulsion concentrates (EC), are then sprayed onto the green parts of the plants as aqueous suspension or emulsion with addition of 0.5% additive at a water application rate of 600 l/ha (converted). After the test plants have been kept in the greenhouse under optimum growth conditions for about 3 weeks, the activity of the preparations is rated visually in comparison to untreated controls. For example, 100% activity=the plants have died, 0% activity=like control plants.
Tables 20a to 38c below show the effects/crop compatibilities of selected compounds of the general formula (I) on various harmful plants at an application rate corresponding to 20 to 320 g/ha, which were obtained by the trial procedure specified above.

ABUTH = test: Post-emergence herbicidal effect, greenhouse pot test; format: in vivo, Abutilon theophrasti; settings: Abutilon theophrasti, 504 h, visual rating about 3 weeks after treatment, read-out: Post-emergence effect against ABUTH
Outline: (§1)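 Sandy loam pots, greenhouse. One-leaf stage (2–3 wk after sowing) foliar spray; WP/EC in water + 0.5% additive, 600 l/ha; 20–320 g/ha. Visual score ~3 wk, 0–100% vs untreated.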

ALOMY = test: as above; format: in vivo, Alopecurus myosuroides; settings: Alopecurus myosuroides, 504 h, 320 g/ha, visual rating about 3 weeks after treatment, read-out: Post-emergence effect against ALOMY
Outline: as §1

AMARE = test: as above; format: in vivo, Amaranthus retroflexus; settings: Amaranthus retroflexus, 504 h, visual rating about 3 weeks after treatment, read-out: Post-emergence effect against AMARE
Outline: as §1

AVEFA = test: as above; format: in vivo, Avena fatua; settings: Avena fatua, 504 h, 320 g/ha, visual rating about 3 weeks after treatment, read-out: Post-emergence effect against AVEFA
Outline: as §1

DIGSA = test: as above; format: in vivo, Digitaria sanguinalis; settings: Digitaria sanguinalis, 504 h, visual rating about 3 weeks after treatment, read-out: Post-emergence effect against DIGSA
Outline: as §1

ECHCG = test: as above; format: in vivo, Echinochloa crus-galli; settings: Echinochloa crus-galli, 504 h, read-out: Post-emergence effect against ECHCG in %
Outline: as §1

MATIN = test: as above; format: in vivo, Tripleurospermum inodorum; settings: Tripleurospermum inodorum, 504 h, read-out: Post-emergence effect against MATIN in %
Outline: as §1

PHBPU = test: as above; format: in vivo, Ipomoea purpurea; settings: Ipomoea purpurea, 504 h, read-out: Post-emergence effect against PHBPU in %
Outline: as §1

POLCO = test: as above; format: in vivo, Fallopia convolvulus; settings: Fallopia convolvulus, 504 h, 320 g/ha, read-out: Post-emergence effect against POLCO in %
Outline: as §1

SETVI = test: as above; format: in vivo, Setaria viridis; settings: Setaria viridis, 504 h, read-out: Post-emergence effect against SETVI in %
Outline: as §1

VERPE = test: as above; format: in vivo, Veronica persica; settings: Veronica persica, 504 h, read-out: Post-emergence effect against VERPE in %
Outline: as §1

VIOTR = test: as above; format: in vivo, Viola tricolor; settings: Viola tricolor, 504 h, read-out: Post-emergence effect against VIOTR in %
Outline: as §1

ZEAMX = test: Post-emergence herbicidal effect and crop plant compatibility, greenhouse pot test; format: in vivo, Zea mays; settings: Zea mays, 504 h, one-leaf stage, rated visually after about 3 weeks vs untreated controls; for plant injury at 20 g/ha: read-out: Post-emergence effect at 20 g/ha against ZEAMX in %; for plant injury at 80 g/ha: read-out: Post-emergence effect at 80 g/ha against ZEAMX in %
Outline: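 Visual % activity scored roughly 3 weeks post-spray against untreated plants, where 100% means death and 0% equals control. Plants were treated at the one-leaf stage, 2 to 3 weeks after sowing in sandy loam, at 20 to 320 g/ha.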

SMILES | percent crop injury (phytotoxicity) to wheat, post-emergence at 20 g/ha (TRZAS) [%] | pest or weed control at 320 g/ha (ALOMY) [%] | pest or weed control at 320 g/ha (AMARE) [%] | pest or weed control at 320 g/ha (AVEFA) [%] | pest or weed control at 320 g/ha (DIGSA) [%] | pest or weed control at 320 g/ha (ECHCG) [%] | pest or weed control at 320 g/ha (MATIN) [%] | pest or weed control at 320 g/ha (PHBPU) [%] | pest or weed control at 320 g/ha (SETVI) [%] | pest or weed control at 320 g/ha (VERPE) [%] | pest or weed control at 320 g/ha (VIOTR) [%] | plant injury at 20 g/ha (ZEAMX) [%] | plant injury at 80 g/ha (ZEAMX) [%] | further results
COC(=O)C(OC)Oc1nn(-c2cccc(Cl)c2F)c(-c2cncc(F)c2)c1Cl (centres unmarked) [Example I-16, Methyl {[4-chloro-1-(3-chloro-2-fluorophenyl)-5-(5-fluoropyridin-3-yl)-1H-pyrazol-3-yl]oxy}(methoxy)acetate] | 10 | 90 | 80 | 90 | 90 | 90 | 90 | 90 | 80 | 80 | 90 | – | – | pest or weed control at 80 g/ha (ABUTH; 80 g/ha): 90%; pest or weed control at 320 g/ha (ABUTH; 320 g/ha): 90%; pest or weed control at 80 g/ha (AMARE; 80 g/ha): 80%; pest or weed control at 80 g/ha (DIGSA; 80 g/ha): 80%; pest or weed control at 80 g/ha (ECHCG; 80 g/ha): 90%; pest or weed control at 80 g/ha (MATIN; 80 g/ha): 80%; pest or weed control at 20 g/ha (PHBPU; 20 g/ha): 80%; pest or weed control at 80 g/ha (PHBPU; 80 g/ha): 90%; pest or weed control at 320 g/ha (POLCO): 80%; pest or weed control at 80 g/ha (SETVI; 80 g/ha): 80%; pest or weed control at 20 g/ha (VIOTR; 20 g/ha): 80%; pest or weed control at 80 g/ha (VIOTR; 80 g/ha): 80%
CCOC(=O)C(OC)Oc1nn(-c2ccccc2F)c(-c2ccc(F)nc2)c1Br (centres unmarked) [Example I-22] | 20 | 90 | 90 | 80 | 80 | 90 | 90 | 90 | 90 | 90 | 80 | 20 | 20 | pest or weed control at 80 g/ha (VERPE; 80 g/ha): 90%
COC(Oc1nn(-c2cnccn2)c(-c2ccc(F)nc2)c1Br)C(=O)O (centres unmarked) [Example I-43] | 0 | – | – | – | – | – | – | – | – | – | – | 0 | 0 | –
COC(Oc1nn(-c2ncccc2F)c(-c2ccc(F)nc2)c1Cl)C(=O)O (centres unmarked) [Example I-44] | 0 | – | – | – | – | – | – | – | – | – | – | 0 | 0 | plant injury at 320 g/ha (ZEAMX; 320 g/ha, read-out: Post-emergence effect at 320 g/ha against ZEAMX in %): 0%
